US8933067B2, “Pyrido and pyrimidopyrimidine derivatives as anti-profilerative agents” (Janssen Pharmaceutica N.V., priority 2003, dated 2015)

Columns and labels:
EGFR-kinase domain = target: T1, EGFR-kinase domain (Homo sapiens, UniProt P00533); test: In vitro inhibition of EGFR (Flash Plate or glass-fiber filter kinase assay); format: biochemical; conditions: pIC50; read-out: In vitro kinase activity assay.(C1): IC50 (converted)
T1 construct: 0.35 μg/well poly(GT)biotin and 0.5 μg EGFR-kinase domain/well
T1 sequence (P00533 712-979 limits assumed): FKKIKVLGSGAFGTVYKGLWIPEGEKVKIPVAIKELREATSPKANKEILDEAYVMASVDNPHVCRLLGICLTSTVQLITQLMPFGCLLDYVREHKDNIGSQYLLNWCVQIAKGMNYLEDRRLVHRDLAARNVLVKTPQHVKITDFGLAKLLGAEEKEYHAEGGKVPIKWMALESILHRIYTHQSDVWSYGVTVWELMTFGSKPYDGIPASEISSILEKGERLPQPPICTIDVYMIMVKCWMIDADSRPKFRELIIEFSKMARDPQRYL
Description: The in vitro inhibition of EGFR was assessed using either the Flash Plate technology or the glass-fiber filter technology as described by Davies, S. P. et al., Biochem J. (2000), 351; p. 95-105. The Flash Plate technology is generally described by B. A. Brown et al. in High Throughput Screening (1997), p. 317-328. Editor(s): Devlin, John P. Publisher: Dekker, New York, N.Y.
In the Flash Plate EGFR kinase reaction assay, a kinase substrate consisting of biotinylated poly(L-glutamic acid-L-tyrosine) (poly(GT)biotin), is incubated with the aforementioned protein in the presence of (^33P) radiolabeled ATP. (^33P) phosphorylation of the substrate is subsequently measured as light energy emitted using a streptavidin-coated Flash Plate (PerkinElmer Life Sciences) by trapping and quantifying the binding of the biotin tagged and radiolabeled substrate.
The EGFR kinase reaction is performed at 30° C. for 60 minutes in a 96-well microtiter FlashPlate (PerkinElmer Life Sciences). For each of the tested compounds a full dose response 1.10^−6M to 1.10^−10M has been performed. IRESSA® and Tarceva™ (erlotinib) were used as reference compounds. The 100 μl reaction volume contains 54.5 mM TrisHCl pH 8.0, 10 mM MgCl2, 100 μM Na3VO4, 5.0 μM unlabeled ATP, 1 mM DTT, 0.009% BSA, 0.8 μCi AT^33P, 0.35 μg/well poly(GT)biotin and 0.5 μg EGFR-kinase domain/well.
The reaction is stopped by aspirating the reaction mixture and washing the plate 3× with 200 μl wash/stop buffer (PBS+100 mM EDTA). After the final wash step 200 μl of wash/stop buffer was added to each well and the amount of phosphorylated (^33P) Poly(GT)biotin determined by counting (30 sec/well) in a microtiterplate scintillation counter.
In the glass-fiber filter technology EGFR kinase reaction assay, a kinase substrate consisting of poly(L-glutamic acid-L-tyrosine) (poly(GT)), is incubated with the aforementioned protein in the presence of (^33P) radiolabeled ATP. (^33P) Phosporylation of the substrate is subsequently measured as radioactivity bound on a glassfiber-filter.
The EGFR kinase reaction is performed at 25° C. for 10 minutes in a 96-well microtiterplate. For each of the tested compounds a full dose response 1.10^−6M to 1.10^−10M has been performed. IRESSA® and Tarceva™ (erlotinib) were used as reference compounds. The 25 μl reaction volume contains 60 mM TrisHCl pH 7.5, 3 mM MgCl2, 3 mM Mn Cl2, 3 μM Na3VO4, 50 μg/ml PEG20000, 5.0 μM unlabeled ATP, 1 mM DTT, 0.1 μCi AT^33P, 62.5 ng/well poly(GT) and 0.5 μg EGFR-kinase domain/well.
The reaction is stopped by adding 5 μl of a 3% phosphoric acid solution. 10 μl of the reaction mixture is then spotted onto a Filtermat A filter (Wallac) and washed 3 times for 5 min. in 75 mM phosphoric acid and 1 time for 5 min. in methanol prior to drying and quantification on the Typhoon (Amersham) using a LE phosphorage storage screen.

SKOV3 cells = test: Serum starved, EGF stimulated proliferation assay on ovarian carcinoma SKOV3 cells (MTT); format: cell-based; conditions: Homo sapiens, SK-OV-3; EGF 100 ng/ml, 72 hours, serum free; pIC50; read-out: SKOV3 cell (C2): IC50 (converted)
Description: The ovarian carcinoma cell line (SKOV3) was used in an epidermal growth factor stimulated cell proliferation assay, to assess the inhibitory effect of the compounds on EGF in whole cells.
In a first step the SKOV3 cells were incubated for 24 hours in the presence of 10% FCS serum. In the second step the cells were incubated with the compounds to be tested in a serum free condition (37° C. and 5% (v/v) CO2) and subsequently stimulated for 72 hours with EGF at a final concentration of 100 ng/ml. The effect of the compounds on the EGF stimulation was finally assessed in a standard MTT cell viability assay.

## Clc1ccc2c(c1)Nc1ncnc3ccc(nc13)NCCCCCCO2 [Compound 1, 7H,19H-4,6-ethanediylidenepyrimido[4,5-b][13,1,4,6]benzoxatriazacyclopentadecine, 17-chloro-8,9,10,11,12,13-hexahydro-]
EGFR-kinase domain
  IC50: 5.01 nM
SKOV3 cells
  IC50: 589 nM

## Clc1ccc2c(c1)Nc1ncnc3cnc(nc13)NCCCCCCO2 [Compound 2, 6,4-(nitrilometheno)pyrimido[4,5-b][13,1,4,6]benzoxatriazacyclopentadecine, 17-chloro-7,8,9,10,11,12,13,19-octahydro-]
EGFR-kinase domain
  IC50: 3.16 nM
other
  melting point: > 260 °C
SKOV3 cells
  IC50: > 10000 nM

## OCCCCCCNc1ccc2ncnc(Nc3cc(Cl)ccc3O)c2n1 [Intermediate 2, phenol, 4-chloro-2-[[6-[(6-hydroxyhexyl)amino]pyrido[3,2-d]pyrimidin-4-yl]amino]-]
EGFR-kinase domain
  IC50: 6.31 nM
SKOV3 cells
  IC50: 3160 nM

## OCCCCNc1ccc2ncnc(Nc3cc(Cl)ccc3O)c2n1 [Intermediate 3, phenol, 4-chloro-2-[[6-[(4-hydroxybutyl)amino]pyrido[3,2-d]pyrimidin-4-yl]amino]-]
EGFR-kinase domain
  IC50: 3.98 nM
SKOV3 cells
  IC50: 794 nM

## OCCCCCNc1ccc2ncnc(Nc3cc(Cl)ccc3O)c2n1 [Intermediate 4, phenol, 4-chloro-2-[[6-[(5-hydroxypentyl)amino]pyrido[3,2-d]pyrimidin-4-yl]amino]-]
EGFR-kinase domain
  IC50: 5.01 nM
SKOV3 cells
  IC50: 1580 nM

## OCCCCCCNc1ncc2ncnc(Nc3cc(Cl)ccc3O)c2n1 [Intermediate 6, phenol, 4-chloro-2-[[6-[(6-hydroxyhexyl)amino]pyrimido[5,4-d]pyrimidin-4-yl]amino]-]
EGFR-kinase domain
  IC50: 3.98 nM
SKOV3 cells
  IC50: 1000 nM
